One assay has as its system Bacillus subtilis PY79. Put plainly: MIC, overnight culture/serial dilution assay. The conditions noted are these: overnight serial dilution culture, purified compound. In kind it is cell-based.
Assay [1] has as its system B. subtilis BSZ-9 (L11 knockout). Conditions: colonies of M1152 + pSETGE1 overlaid with B. subtilis BSZ-9, resistant to 26-membered thiopeptides.

Regarding GE37468, in the assay with Bacillus subtilis PY79, the “MIC B. subtilis” value was 0.016 µg/mL. For the same substance, the “resistance of overlaid strain” value in assay [1] is on record as “Neither BSZ-9 nor B. cereus ATCC 15479 exhibited resistance”.
